Legend:
full-length SHP2 protein = target: T1, full-length SHP2 protein (Homo sapiens, UniProt Q06124); test: In vitro SHP2 enzyme activity inhibition (DiFMUP substrate, SHP2 activating peptide); format: biochemical; settings: full-length SHP2 protein with activating peptide, 8 concentrations, read-out: IC50 of compounds inhibiting SHP2 enzyme activity
T1 construct: Purified full-length SHP2 protein (Kamed Bio-Tianjin); purchased Kamed Bio-Tianjin
T1 sequence (Q06124 1-593): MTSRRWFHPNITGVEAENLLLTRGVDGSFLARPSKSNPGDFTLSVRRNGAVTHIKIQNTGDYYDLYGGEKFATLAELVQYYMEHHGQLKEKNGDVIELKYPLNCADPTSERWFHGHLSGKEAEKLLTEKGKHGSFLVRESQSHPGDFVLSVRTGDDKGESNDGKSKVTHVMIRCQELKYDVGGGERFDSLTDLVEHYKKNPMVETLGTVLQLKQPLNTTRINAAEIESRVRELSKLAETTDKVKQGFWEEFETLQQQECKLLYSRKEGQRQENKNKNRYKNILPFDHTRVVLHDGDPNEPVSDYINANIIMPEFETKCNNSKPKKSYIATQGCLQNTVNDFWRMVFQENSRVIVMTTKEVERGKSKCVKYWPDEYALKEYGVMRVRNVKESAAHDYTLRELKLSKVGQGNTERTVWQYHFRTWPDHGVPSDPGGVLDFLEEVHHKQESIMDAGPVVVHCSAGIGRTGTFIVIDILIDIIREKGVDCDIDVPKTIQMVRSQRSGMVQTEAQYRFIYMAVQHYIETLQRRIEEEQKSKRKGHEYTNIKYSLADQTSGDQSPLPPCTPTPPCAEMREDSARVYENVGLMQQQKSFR
Protocol: • a) Purified full-length SHP2 protein (Kamed Bio-Tianjin) • b) SHP2 activating peptide (BPS Bioscience). • c) DiFMUP. • d) Reaction buffer (120 mM HEPES pH 7.2, 200 mM NaCl, 1 mM EDTA, 0.002% Brij35), added with 0.04% BSA after autoclave, stored at 4° C.; diluted to 1× before use, and added with 2 mM DTT.
• a) The 384-well plates were filled with 10 uL solution of compound to be tested (No. 2), 3-fold gradient dilution, totaling 8 concentrations; • b) The sample wells to be tested were added with 5 uL of […] activating peptide (No. 4, 2 uM) and 5 uL of 4×full-length SHP2 protein (0.88 nM), control wells were free of inhibitor, and blank wells were free of SHP2 activating peptide and inhibitor; • c) 384-well plate was sealed, mixed well and incubated at room temperature for 1 hr; • d) After adding 5 uL 5×DiFMUP (125 uM), 384-well plate was sealed, mixed well and incubated at room temperature for 1 hr, and then detected by En Vision;
% Inhibition=[1−(RFUsample−RFUblank)/(RFUtotal−RFUblank)]×100
Non-linear regression analysis was performed using Graphpad 8.0, and the IC50 values for each compound were obtained by fitting a curve of enzyme activity with compound concentration through the equation Y=Bottom+(Top−Bottom)/(1+10^((LogIC50−X)*Hill Slope)).

MV4-11 cells = test: Compound activity in MV4-11 cells (72 hr, cell viability by CTG method); format: cell-based; settings: Homo sapiens, 72 hr incubation
Protocol: MV4-11 cells in logarithmic growth phase were taken, prepared into cell suspension, inoculated in 96-well plates at 160 uL/well with an inoculation density of 5000 cells/well, and cultured overnight in a 37° C. cell culture incubator. A 5× solution of the compound to be tested was prepared with 4-fold gradient dilution, and a total of 8 concentrations with double duplicate wells. The solution of the compound to be tested was added into 96-well plate at 40 uL/well, and the blank and control wells were added with corresponding volume of solvent, shaken and mixed well, and then incubated in 37° C. cell incubator for 72 hr, and the cell viability was detected by CTG method.
Equation (Sample−blank)/(control−blank)*100% was used to convert raw data to inhibition rate, and the IC50 value could be obtained by curve fitting with four parameters (obtained with “log(inhibitor) vs. response—Variable slope” model in GraphPad Prism), and the results are shown in Table III. (In the table below, the following designations are used: <100 nM=A; 100-500 nM=B; >500 nM=C).

IC50 (full-length SHP2 protein) | IC50 (MV4-11 cells) | SMILES
< 50 nM | < 100 nM | C[C@@H]1OCC2(CCN(c3nc4cnn(-c5cccc6c5ccn6C)c4nc3CO)CC2)[C@@H]1N [Compound C5]
< 50 nM | < 100 nM | C[C@@H]1OCC2(CCN(c3nc4cnn(-c5ccc6c(cnn6C)c5)c4nc3CO)CC2)[C@@H]1N [Compound C11]
< 50 nM | < 100 nM | C[C@@H]1OCC2(CCN(c3nc4cnn(-c5ccc6nnn(C)c6c5)c4nc3CO)CC2)[C@@H]1N [Compound C17]
< 50 nM | < 100 nM | Cc1nc(N2CCC3(CC2)CO[C@@H](C)[C@H]3N)c(CO)nc1Sc1ccnc(N)c1Cl [RMC-4630, reference compound]

The remaining lines, values behind:

SMILES | IC50 (full-length SHP2 protein) | IC50 (MV4-11 cells)
C[C@@H]1OCC2(CCN(c3nc4cnn(-c5ccc6cnn(C)c6c5)c4nc3CO)CC2)[C@@H]1N [Compound C4] | < 50 nM | < 100 nM
C[C@@H]1OCC2(CCN(c3nc4cnn(-c5ccc6nn(C)cc6c5Cl)c4nc3CO)CC2)[C@@H]1N [Compound C6] | < 50 nM | < 100 nM
C[C@@H]1OCC2(CCN(c3nc4cnn(-c5ccc6ccn(C)c6c5)c4nc3CO)CC2)[C@@H]1N [Compound C12] | < 50 nM | < 100 nM
C[C@@H]1OCC2(CCN(c3nc4cnn(-c5cccc6c5CCN6C)c4nc3CO)CC2)[C@@H]1N [Compound C13] | < 50 nM | 
C[C@@H]1OCC2(CCN(c3nc4cnn(-c5ccc6cn(C)nc6c5)c4nc3CO)CC2)[C@@H]1N [Compound C14] | < 50 nM | 
C[C@@H]1OCC2(CCN(c3nc4cnn(-c5ccc6cn[nH]c6c5)c4nc3CO)CC2)[C@@H]1N [Compound C15] | < 50 nM | < 100 nM
C[C@@H]1OCC2(CCN(c3nc4cnn(-c5ccc6cnn(C)c6c5)c4nc3C(F)F)CC2)[C@@H]1N [Compound C16] | < 50 nM | 
CCn1ncc2ccc(-n3ncc4nc(N5CCC6(CC5)CO[C@@H](C)[C@H]6N)c(CO)nc43)cc21 [Compound C18] | < 50 nM | 
C[C@@H]1OCC2(CCN(c3nc4cnn(-c5ccnc(N)c5Cl)c4nc3CO)CC2)[C@@H]1N [WO2021148010A1 Example 5, reference compound] | 50 to 500 nM | 100 to 500 nM

Source: patent publication US20240190887A1, “COMPOUND USED AS SHP2 INHIBITOR AND USE THEREOF” (TYK MEDICINES, INC., priority 2021, published 2024)
